Reference: publication PMC12614342, “Azetidine amino acid biosynthesis by non-haem iron-dependent enzymes” (Nature Chemistry, 2025)

Columns and labels:
PolF [1] = target: T1, PolF (Streptomyces asoensis, UniProt C1IC29); conditions: Fe(II), O2, ascorbate; 50 mM HEPES pH 7.6, 25 °C (stopped-flow 5 °C, no ascorbate)
PolF [2] = target: T1, PolF; conditions: Fe(II)2 form; L-Ile bidentate on Fe1; TEV-cleaved tagless protein, crystals grown with 15 mM L-Ile, pH 8.5
PolE = target: T2, PolE (Streptomyces asoensis, UniProt C1IC30); conditions: Fe(II), BH4, O2, ascorbate; 50 mM HEPES pH 7.6, 25 °C
T2 construct: gene Saso_24180
T2 sequence (C1IC30 entry or part of it): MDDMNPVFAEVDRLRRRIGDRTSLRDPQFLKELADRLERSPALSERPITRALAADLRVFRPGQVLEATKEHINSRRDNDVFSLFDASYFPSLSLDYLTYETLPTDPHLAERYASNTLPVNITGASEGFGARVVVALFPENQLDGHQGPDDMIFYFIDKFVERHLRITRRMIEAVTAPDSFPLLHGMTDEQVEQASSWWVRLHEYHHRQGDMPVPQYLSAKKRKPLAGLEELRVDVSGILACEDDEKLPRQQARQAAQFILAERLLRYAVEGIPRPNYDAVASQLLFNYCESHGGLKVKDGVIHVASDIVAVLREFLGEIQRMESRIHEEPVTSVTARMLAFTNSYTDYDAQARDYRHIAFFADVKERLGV

Structure (SMILES)	LC-MS of dansylated products; stopped-flow at 614 nm (PolF [1])	X-ray crystal structure of the complex (PolF [2])	LC-MS of dansylated desaturation product (PolE)
CC(C)[C@H](N)C(=O)O [L-Val]	the reaction with L-Val yielded a product with a −4-Da modification	–	–
CC[C@H](C)[C@H](N)C(=O)O [L-Ile]	–	The L-Ile substrate directly coordinates Fe1 in a bidentate fashion	PolE catalysed the desaturation of L-Ile in the presence of BH4
